From US20100267561A1, “HERBICIDAL PYRIDAZINONE DERIVATIVES” (priority 2007, published 2010)

Tests used:
Type in all cases: in vivo
[1] = tested on: large crabgrass (Digitaria sanguinalis); experiment: Test B pre-/postemergence plant response
Method in brief: (§1)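 Seeds were sown and sprayed preemergence, while plants at 2 to 18 cm (1- to 4-leaf stage) got postemergence sprays. Compounds were formulated in a non-phytotoxic solvent mixture with surfactant. After 13 to 15 days in a greenhouse, injury was rated visually against untreated controls, 0 (no effect) to 100 (complete control).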

[2] = tested on: cocklebur (Xanthium strumarium); experiment: Test B pre-/postemergence plant response; conditions: for Cocklebur plant response rating: 8 g ai/ha
Method in brief: as §1

[3] = tested on: Russian thistle (Salsola iberica); experiment: Test B pre-/postemergence plant response; conditions: Preemergence
Method in brief: as §1

[4] = tested on: winter barley (Hordeum vulgare); experiment: Test C pre-/postemergence plant response; conditions: Preemergence
Method in brief: (§2)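 Visual rating vs untreated controls, 0 (no effect) to 100 (complete control), after 15–25 days in a controlled growth environment. Pre- and postemergence treatments; post plants at 1- to 4-leaf stage, 2–18 cm. Formulation: non-phytotoxic solvent mix plus surfactant.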

[5] = tested on: winter wheat (Triticum aestivum); experiment: Test C pre-/postemergence plant response; conditions: Preemergence
Method in brief: as §2

[6] = tested on: blackgrass (Alopecurus myosuroides); experiment: Test C pre-/postemergence plant response; conditions: Preemergence
Method in brief: as §2

[7] = tested on: pigweed (Amaranthus retroflexus); experiment: Test C pre-/postemergence plant response; conditions: Preemergence
Method in brief: as §2

[8] = tested on: Italian ryegrass (Lolium multiflorum); experiment: Test C pre-/postemergence plant response; conditions: Preemergence
Method in brief: as §2

[9] = tested on: green foxtail (Setaria viridis); experiment: Test C pre-/postemergence plant response; conditions: Preemergence
Method in brief: as §2

[10] = tested on: downy bromegrass (Bromus tectorum); experiment: Test C pre-/postemergence plant response; conditions: Preemergence
Method in brief: as §2

[11] = tested on: spring barley (Hordeum vulgare); experiment: Test C pre-/postemergence plant response; conditions: Preemergence
Method in brief: as §2

[12] = tested on: spring wheat (Triticum aestivum); experiment: Test C pre-/postemergence plant response; conditions: Preemergence
Method in brief: as §2

[13] = tested on: wild mustard (Sinapis arvensis); experiment: Test C pre-/postemergence plant response; conditions: Preemergence
Method in brief: as §2

[14] = Preemergence, 16 g ai/ha, scale 0 to 100 (0 no effect, 100 complete control)
[15] = Preemergence, 31 g ai/ha, 0 to 100 scale, 0 no effect, 100 complete control
[16] = Preemergence, 62 g ai/ha, scale 0 to 100
[17] = Preemergence, 8 g ai/ha, scale 0 to 100
[18] = 16 g ai/ha, scale 0 to 100 (0 no effect, 100 complete control)
[19] = 31 g ai/ha, scale 0 to 100 (0 no effect, 100 complete control)
[20] = 8 g ai/ha, scale 0 to 100 (0 no effect, 100 complete control)
[21] = 62 g ai/ha, scale 0 to 100, 0 no effect, 100 complete control
[22] = Postemergence, 16 g ai/ha, scale 0 to 100
[23] = Postemergence, 31 g ai/ha, scale 0 to 100
[24] = Postemergence, 62 g ai/ha, scale 0 to 100, 0 no effect, 100 complete control

Cc1cc(-c2ccc(Cl)cc2)nn1-c1c(OS(=O)(=O)c2cccc3ccccc23)cnn(C)c1=O [Compound 47]
40: Plant response rating, Russian Thistle ([3]; 62 g ai/ha, scale 0 to 100) | Plant response rating, Barley, Winter [4, 19] | Plant response rating, Barley, Winter [4, 21]
80: Plant response rating, Ryegrass, Italian [8, 19] | Plant response rating, Foxtail, Green [9, 19]
75: Plant response rating, Barley, Spring [11, 21]
35: Plant response rating, Wheat, Winter [5, 19] | Plant response rating, Bromegrass, Downy [10, 19] | Plant response rating, Bromegrass, Downy [10, 21] | Plant response rating, Barley, Spring [11, 19]
90: Plant response rating, Blackgrass [6, 19]
65: Plant response rating, Wheat, Winter [5, 21] | Plant response rating, Wheat, Spring [12, 21]
0: Crabgrass, Large plant response rating [1, 17] | Plant response rating, Cocklebur [2, 14] | Plant response rating, Cocklebur [2, 15] | Plant response rating, Cocklebur [2, 16] | Cocklebur plant response rating ([2]; Preemergence, scale 0 to 100) | Plant response rating, Russian Thistle [3, 18] | Plant response rating, Russian Thistle [3, 19] | Russian Thistle plant response rating ([3]; 8 g ai/ha, scale 0 to 100) | Plant response rating, Barley, Winter [4, 20] | Plant response rating, Wheat, Winter [5, 20] | Plant response rating, Blackgrass [6, 20] | Plant response rating, Blackgrass [6, 18] | Plant response rating, Pigweed [7, 20] | Plant response rating, Pigweed [7, 18] | Plant response rating, Pigweed [7, 19] | Plant response rating, Pigweed [7, 21] | Plant response rating, Ryegrass, Italian [8, 20] | Plant response rating, Foxtail, Green [9, 20] | Plant response rating, Bromegrass, Downy [10, 20] | Plant response rating, Wheat, Spring [12, 20] | Plant response rating, Mustard, Wild [13, 20] | Plant response rating, Mustard, Wild [13, 18] | Plant response rating, Mustard, Wild [13, 19] | Plant response rating, Mustard, Wild [13, 21]
100: Plant response rating, Crabgrass, Large [1, 15] | Plant response rating, Crabgrass, Large [1, 16] | Plant response rating, Blackgrass [6, 21] | Plant response rating, Ryegrass, Italian [8, 21] | Plant response rating, Foxtail, Green [9, 21]
25: Plant response rating, Wheat, Spring [12, 19]
15: Plant response rating, Foxtail, Green [9, 18] | Plant response rating, Bromegrass, Downy [10, 18] | Plant response rating, Wheat, Spring [12, 18]
20: Plant response rating, Barley, Winter [4, 18] | Plant response rating, Wheat, Winter [5, 18] | Plant response rating, Ryegrass, Italian [8, 18] | Plant response rating, Barley, Spring [11, 18]
10: Plant response rating, Barley, Spring [11, 20]
85: Plant response rating, Crabgrass, Large [1, 14]

Cc1cc(-c2ccc(Cl)cc2)nn1-c1c(OC(=O)c2cccs2)cnn(C)c1=O [Compound 52]
75: Plant response rating, Foxtail, Green [9, 20]
50: Plant response rating, Barley, Winter [4, 21]
95: Plant response rating, Blackgrass [6, 19] | Plant response rating, Blackgrass [6, 21]
15: Plant response rating, Bromegrass, Downy [10, 19]
100: Plant response rating, Crabgrass, Large [1, 23] | Plant response rating, Crabgrass, Large [1, 24] | Plant response rating, Ryegrass, Italian [8, 21] | Plant response rating, Foxtail, Green [9, 18] | Plant response rating, Foxtail, Green [9, 19] | Plant response rating, Foxtail, Green [9, 21]
40: Plant response rating, Wheat, Winter [5, 19] | Plant response rating, Blackgrass [6, 20] | Plant response rating, Barley, Spring [11, 19]
60: Plant response rating, Blackgrass [6, 18] | Plant response rating, Barley, Spring [11, 21]
80: Plant response rating, Bromegrass, Downy [10, 21]
65: Crabgrass, Large plant response rating ([1]; 8 g ai/ha, postemergence, 0-100 scale) | Plant response rating, Wheat, Winter [5, 21] | Plant response rating, Ryegrass, Italian [8, 18] | Plant response rating, Wheat, Spring [12, 19]
90: Plant response rating, Ryegrass, Italian [8, 19] | Plant response rating, Wheat, Spring [12, 21]
0: Plant response rating, Crabgrass, Large [1, 15] | Plant response rating, Crabgrass, Large [1, 16] | Crabgrass, Large plant response rating [1, 17] | Crabgrass, Large plant response rating ([1]; Preemergence, 16 g ai/ha, scale 0 to 100) | Cocklebur plant response rating ([2]; postemergence, 0-100 scale) | Plant response rating, Cocklebur [2, 22] | Plant response rating, Cocklebur [2, 23] | Plant response rating, Cocklebur [2, 24] | Plant response rating, Cocklebur [2, 14] | Plant response rating, Cocklebur [2, 15] | Plant response rating, Cocklebur [2, 16] | Cocklebur plant response rating ([2]; Preemergence, scale 0 to 100) | Plant response rating, Russian Thistle [3, 19] | Plant response rating, Russian Thistle ([3]; 62 g ai/ha, scale 0 to 100) | Russian Thistle plant response rating ([3]; 8 g ai/ha, scale 0 to 100) | Russian Thistle plant response rating ([3]; 16 g ai/ha, scale 0 to 100) | Plant response rating, Barley, Winter [4, 20] | Plant response rating, Barley, Winter [4, 18] | Plant response rating, Barley, Winter [4, 19] | Plant response rating, Wheat, Winter [5, 20] | Plant response rating, Wheat, Winter [5, 18] | Plant response rating, Pigweed [7, 20] | Plant response rating, Pigweed [7, 18] | Plant response rating, Pigweed [7, 19] | Plant response rating, Pigweed [7, 21] | Plant response rating, Ryegrass, Italian [8, 20] | Plant response rating, Bromegrass, Downy [10, 20] | Plant response rating, Bromegrass, Downy [10, 18] | Plant response rating, Barley, Spring [11, 20] | Plant response rating, Barley, Spring [11, 18] | Plant response rating, Wheat, Spring [12, 20] | Plant response rating, Wheat, Spring [12, 18] | Plant response rating, Mustard, Wild [13, 20] | Plant response rating, Mustard, Wild [13, 18] | Plant response rating, Mustard, Wild [13, 19] | Plant response rating, Mustard, Wild [13, 21]
85: Plant response rating, Crabgrass, Large [1, 22]
